Values joined by “and” are separate entries in the source; they are usually repeats but may differ in a detail not shown here. Identical values can stand only once. Counter-ions that a name gives are not always drawn.
Tests used:
[1] = test system: Gram-positive bacteria; conditions: cited from earlier work
[2] = in vivo; cited from earlier work
[3] = target: hERG channel (Homo sapiens, UniProt Q12809); conditions: cited from earlier work
[4] = test system: Staphylococcus aureus, Streptococcus pneumoniae, Haemophilus influenzae, Moraxella catarrhalis and Klebsiella pneumoniae; assay: checkerboard synergy assay with iclaprim, strains pooled; format: cell-based; conditions: for synergistic potential with iclaprim: checkerboard experiments, all strains
Protocol: The synergistic potential of iclaprim against Gram-positive and Gram-negative bacteria was determined using the checkerboard assay as described in Eliopoulos GM and Moellering, Jr. RC (1991), Antimicrobial combinations, pp. 432-492, in V. Lorian (ed.), Antibiotics in laboratory medicine, 3rd Ed., The Williams & Wilkins Co., Baltimore, the entire disclosure of which is herein incorporated by reference, allowing multiple test concentrations of iclaprim to be assayed in the presence of various concentrations of the other antibiotic in microtiter plates. The same growth media and conditions were used as described in 3.2 below.
Two different dilutions were used for iclaprim depending on the MIC determined for the bacterium. […] Iclaprim and the other antibiotic being tested were also dispensed alone in the last row and in the last column, respectively, as controls.
The Fractional Inhibitory Concentrations (FIC) for each added agent were calculated and used to determine the sum of FIC (ΣFIC) indicative of the synergistic potential of a given combination as described in Veyssier P. (1999), Inhibiteurs de la dihydrofolate reductase, nitrohétérocycles (furanes) et 8-hydroxyquinoleines, pp. 995-1027, in A. Bryskier (ed.), Antibiotiques agents antibatériens et antifongiques, 1st Ed., Ellipses Edition Marketing SA, Paris, the entire disclosure of which is herein incorporated by reference. Synergy was defined whereby the ΣFIC was <0.5, indifference (no synergy nor antagonism) whereby ΣFIC was ≥0.5 but ≤4, and antagonism whereby ΣFIC was >4. Additivity as a special form of indifference was defined whereby the ΣFIC was ≥0.5 but <1, for example as described in Stevens, D L et al. (1998), In vitro antimicrobial effects of various combinations of penicillin and clindamycin against four strains of Streptococcus pyogenes, J. Antimicrob. Chemother. 42: 1266-1268, the entire disclosure of which is herein incorporated by reference.

[5] = test system: S. pneumoniae 1/1; assay: MIC determination; format: cell-based, Streptococcus pneumoniae; conditions: Streptococcus pneumoniae; S. pneumoniae 1/1; 18 hours at 37° C., 5% CO2; read-out: Minimum inhibitory concentrations (MIC)
[6] = test system: Moraxella catarrhalis RA 21; assay: checkerboard synergy assay with iclaprim; format: cell-based; conditions: antibiotic in combination with iclaprim; M. catarrhalis RA 21
[7] = test system: Haemophilus influenzae ATCC 49766; assay: checkerboard synergy assay with iclaprim; format: cell-based; conditions: antibiotic in combination with iclaprim; H. influenzae 49766
[8] = test system: Klebsiella pneumoniae ATCC 33495; assay: checkerboard synergy assay with iclaprim; format: cell-based; conditions: antibiotic in combination with iclaprim; K. pneumoniae 33495
[9] = test system: S. aureus 101; assay: MIC determination; format: cell-based, Staphylococcus aureus; conditions: Staphylococcus aureus, 101, 18 h; read-out: Minimum inhibitory concentrations (MIC)
Summary of the method: (§1)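 K. pneumoniae and S. aureus grew in cation-adjusted Mueller-Hinton broth in ambient air. H. influenzae used Haemophilus test medium (MHB, yeast extract, NAD, hematin) and M. catarrhalis used Brain Heart Infusion, both under 5% CO2.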

[10] = test system: Moraxella catarrhalis RA 21; assay: MIC determination; format: cell-based; conditions: Moraxella catarrhalis, RA21; M. catarrhalis RA 21; 18 hours at 37° C., 5% CO2; read-out: Minimum inhibitory concentrations (MIC)
Summary of the method: as §1

[11] = test system: Haemophilus influenzae ATCC 49766; assay: MIC determination; format: cell-based; conditions: Haemophilus influenzae, ATCC49766, 18 h, read-out: Minimum inhibitory concentrations (MIC)
Summary of the method: as §1

[12] = test system: Streptococcus pneumoniae ATCC 49619; assay: MIC determination; format: cell-based; conditions: Streptococcus pneumoniae, ATCC49619; S. pneumoniae 49619; 18 hours at 37° C., 5% CO2; read-out: Minimum inhibitory concentrations (MIC)
[13] = test system: Klebsiella pneumoniae ATCC 33495; assay: MIC determination; format: cell-based; conditions: Klebsiella pneumoniae, ATCC33495; K. pneumonia 33495; 18 hours at 37° C.; read-out: Minimum inhibitory concentrations (MIC)
Summary of the method: as §1

[14] = test system: Staphylococcus aureus ATCC 25923; assay: MIC determination; format: cell-based; conditions: Staphylococcus aureus, ATCC25923; S. aureus 25923; 18 hours at 37° C.; read-out: Minimum inhibitory concentrations (MIC)
Summary of the method: as §1

[15] = 1% solution in water; cited from earlier work
[16] = water at 20° C.; cited from earlier work
[17] = cited from earlier work
[18] = test system: S. aureus 101; assay: checkerboard synergy assay with iclaprim; format: cell-based, Staphylococcus aureus; conditions: antibiotic in combination with iclaprim
[19] = test system: S. pneumoniae 1/1; assay: checkerboard synergy assay with iclaprim; format: cell-based, Streptococcus pneumoniae; conditions: antibiotic in combination with iclaprim
[20] = test system: Streptococcus pneumoniae ATCC 49619; assay: checkerboard synergy assay with iclaprim; format: cell-based; conditions: antibiotic in combination with iclaprim; S. pneumoniae 49619
[21] = test system: Staphylococcus aureus ATCC 25923; assay: checkerboard synergy assay with iclaprim; format: cell-based; conditions: antibiotic in combination with iclaprim; S. aureus 25923
[22] = in vivo; cited from earlier work; remark: listed apart in the source
[23] = test system: Pneumocystis jirovecii; assay: in vivo Pneumocystis pneumonia model, corticosteroid-treated rats; conditions: 50 mg/kg/d oral, once a day for 10 days
Protocol: Compound solutions were prepared just before use.
The drugs were given once a day for 10 consecutive days. The final concentration of DMSO in diluted drug solutions was between 1.5 and 15%. Control animals were dosed with sterile water with 15% of DMSO. At the end of the experiment, therapeutic efficacy was assessed by counting P. jirovecii in lung homogenates and comparing the counts with those of the untreated controls. Twenty-four hours after the end of the treatment, animals were sacrificed and the lung homogenized in a Stomacher-400 blender as previously described (European Concerted Action on Pneumocystis Research. Parasitology Today 12: 245-9, 1996, the entire disclosure of which is herein incorporated by reference). Parasite quantitation was performed on air-dried smears stained with toluidine blue 0 (cystic forms) or RAL-555 stains (vegetative, precystic and cystic forms).

[24] = rat lung, single rat, listed as TMP, 50 mg/kg/day
[25] = single rat, listed as TMP, 50 mg/kg/day

Sequence of hERG channel (Q12809 whole entry): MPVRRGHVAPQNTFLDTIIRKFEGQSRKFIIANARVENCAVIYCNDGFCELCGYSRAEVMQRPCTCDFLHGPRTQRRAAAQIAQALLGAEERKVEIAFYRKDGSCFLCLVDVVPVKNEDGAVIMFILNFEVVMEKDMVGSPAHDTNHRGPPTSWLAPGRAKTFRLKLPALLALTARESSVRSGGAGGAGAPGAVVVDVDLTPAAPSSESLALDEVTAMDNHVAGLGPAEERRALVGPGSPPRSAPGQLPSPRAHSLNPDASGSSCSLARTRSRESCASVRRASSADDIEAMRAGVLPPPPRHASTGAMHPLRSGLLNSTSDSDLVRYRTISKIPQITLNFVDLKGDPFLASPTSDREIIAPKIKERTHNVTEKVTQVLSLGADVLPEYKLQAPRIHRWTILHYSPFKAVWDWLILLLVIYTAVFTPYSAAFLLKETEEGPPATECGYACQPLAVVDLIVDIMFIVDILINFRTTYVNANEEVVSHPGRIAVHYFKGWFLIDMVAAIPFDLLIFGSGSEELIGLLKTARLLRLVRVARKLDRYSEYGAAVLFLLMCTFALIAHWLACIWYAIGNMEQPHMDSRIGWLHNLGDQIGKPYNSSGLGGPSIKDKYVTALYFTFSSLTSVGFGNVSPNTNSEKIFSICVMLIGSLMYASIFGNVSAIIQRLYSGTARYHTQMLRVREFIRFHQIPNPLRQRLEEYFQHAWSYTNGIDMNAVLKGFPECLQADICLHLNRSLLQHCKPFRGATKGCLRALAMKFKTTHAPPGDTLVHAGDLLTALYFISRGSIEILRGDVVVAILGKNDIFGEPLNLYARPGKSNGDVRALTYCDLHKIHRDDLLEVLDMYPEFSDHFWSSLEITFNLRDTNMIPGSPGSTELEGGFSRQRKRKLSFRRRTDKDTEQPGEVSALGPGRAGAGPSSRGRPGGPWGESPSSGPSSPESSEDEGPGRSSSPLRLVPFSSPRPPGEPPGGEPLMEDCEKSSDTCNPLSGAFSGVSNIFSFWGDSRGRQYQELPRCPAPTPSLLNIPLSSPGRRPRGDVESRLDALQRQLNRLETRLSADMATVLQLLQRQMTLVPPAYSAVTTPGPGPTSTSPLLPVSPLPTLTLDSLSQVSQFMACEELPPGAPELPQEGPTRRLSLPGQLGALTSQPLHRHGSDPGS

SMILES	synergistic potential with iclaprim [4]	MIC [5] [µg/mL]	Con (Conclusion) [6]	Con (Conclusion) [7]	Con (Conclusion) [8]	MIC [9] [µg/mL]	MIC [10] [µg/mL]	MIC [11] [µg/mL]	MIC [12] [µg/mL]	MIC [13] [µg/mL]	MIC [14] [µg/mL]	Σ FIC [18]	Σ FIC [19]	Σ FIC [6]	Σ FIC [7]	Σ FIC [20]	Σ FIC [8]	Σ FIC [21]	other results
COc1cc(Cc2cnc(N)nc2N)c2c(c1OC)O[C@H](C1CC1)C=C2 [R-enantiomer, 5-[(2R)-2-cyclopropyl-7,8-dimethoxy-2Hchromen-5-ylmethyl] pyrimidine-2,4-diamine]																			minimum inhibitory concentration (MIC) compared with the S-enantiomer [1]: lower minimum inhibitory concentration (MIC) than the S-enantiomer; pharmacokinetic parameters compared with the S-enantiomer [2]: more favorable pharmacokinetic parameters; hERG channel activity compared with the S-enantiomer [3]: reduced hERG channel activity
Cc1cc(NS(=O)(=O)c2ccc(N)cc2)no1 [Sulfamethoxazole, N1-(5-methyl-3-isoxazolyl)sulfanilamide]	highly synergistic	> 128	Syn (Synergy (Syn))	Syn (Synergy (Syn))	Ad (Additivity (Ad))	> 128	> 128	128	> 128	> 128	> 128								
COc1cc(Cc2cnc(N)nc2N)c2c(c1OC)OC(C1CC1)C=C2 (stereo not drawn) [iclaprim mesylate]																			pH value [15]: 4.2; solubility in water [16]: approximately 10 mg/mL; pKa [17]: 7.2
COc1cc(Cc2cnc(N)nc2N)cc(OC)c1OC [Trimethoprim]		128	Ad (Additivity (Ad))	Ind (Indifference (Ind))	Ind (Indifference (Ind))	> 128	64	0.5	8	8	1	1.01-1.50	0.56-1.03	0.75-1.13	1.00-1.25	1.00-1.25	1.13-1.50	1.00-1.25	t½ (plasma half-life) [22]: about 10.1 hours; Mean % + SD (inhibition of cysts, TBO) ([23]; group mean): 64.2 ± 30.7%; Mean % + SD (inhibition of total parasites, Giemsa) ([23]; group mean): 78.7 ± 22.6%; Total cysts (TBO) [23, 24]: 7.16.10^+7 and 9.36.10^+6 and 1.60.10^+8 and 1.32.10^+7; Total parasites (Giemsa) [23, 24]: 1.06.10^+9 and 5.81.10^+7 and 6.76.10^+8 and 6.38.10^+7; % of inhibition vs Control (total parasites, Giemsa) [23, 25]: 51.3% and 97.3% and 69.0% and 97.1%; % of inhibition vs control (cysts, TBO) [23, 25]: 40.6% and 92.2% and 34.9% and 89.0%
Nc1ccc(S(=O)(=O)Nc2ncccn2)cc1 [Sulfadiazine]	highly synergistic	> 128	Syn (Synergy (Syn))	Syn (Synergy (Syn))	Syn (Synergy (Syn))	> 128	> 128	> 128	> 128	> 128	> 128	0.75-1.13	0.28-0.56	0.09-0.50	0.16-0.53	0.13-0.53	0.27-1.50	0.06-0.53	ΣFIC, range over strains ([4]; in combination with iclaprim, all the strains tested): 0.06-1.50

From patent publication US20200038399A1, “FORMULATIONS, METHODS, KIT, AND DOSAGE FORMS FOR TREATING BACTERIAL INFECTION” (Motif BioSciences Inc., priority 2016, published 2020)
